# Values of other authors, collected in paper PMC6311893, “Computational prediction of plasma protein binding of cyclic peptides from small molecule experimental data using sparse modeling techniques” (BMC Bioinformatics, 2018).
# Like-named read-outs stand apart in the source and are kept apart here.
# Test system: plasma protein
# Conditions: cited from earlier work
# [1] = fraction bound to plasma protein, small molecule dataset, sheet 1-SM (Set Dte = test, Dtr = training), ref Ingle et al.
# [2] = fraction bound to plasma protein, small molecule dataset, sheet 1-SM, Set Dtr, ref Ingle et al.
# [3] = fraction bound to plasma protein, small molecule dataset, sheet 1-SM, ref Ingle et al.
Molecule,PPB (fb) [1],PPB (fb) [3],also measured
NS(=O)(=O)c1cc2c(cc1Cl)N=CNS2(=O)=O [chlorothiazide],0.7,–,–
N=C(N)c1ccc(C(=O)N[C@@H](Cc2ccc(O)cc2)C(=O)N2CCC(OCC(=O)O)CC2)cc1 [Lamifiban],0.06,–,–
CC(C)N(CCC(C(N)=O)(c1ccccc1)c1ccccn1)C(C)C (centres unmarked) [Disopyramide],–,–,PPB (fb) [2]: 0.87
NC1CCN(c2c(F)cc3c(=O)c(C(=O)O)cn(C4CC4)c3c2Cl)C1 (centres unmarked) [Clinafloxacin],0.04,–,–
CNCCCC1c2ccccc2C=Cc2ccccc21 [protriptyline],0.92,–,–
CCOC(=O)C(C)(C)Oc1ccc(Cl)cc1 [clofibrate],0.96,–,–
CN1CCN(C2=Nc3cc(Cl)ccc3Nc3ccccc32)CC1 [Clozapine],–,–,PPB (fb) [2]: 0.95
Cefoperazone,–,–,PPB (fb) (plasma): 0.92
O=C(O)c1cn(-c2cccc([N+](=O)[O-])c2)c2cc(N3CCNCC3)c(F)cc2c1=O [7b(m-NO2)],0.66,–,–
CC(C(=O)O)c1ccc(C(=O)c2cccs2)cc1 (centres unmarked) [Suprofen],–,0.99,–
C[C@@H](O)[C@H]1C(=O)N2C(C(=O)O)=C(SCCOC(N)=O)S[C@H]12 [Sch34343],–,0.65,–
COC(C(=O)NC1C(=O)N2C1SC(C)(C)C2C(=O)O)c1ccccc1 (centres unmarked) [penicillin38],–,0.62,–
O=C(O)COc1ccc(C(=O)c2cccs2)c(Cl)c1Cl [tienilic acid],–,0.99,–
CCCCC1=NC2(CCCC2)C(=O)N1Cc1ccc(-c2ccccc2-c2nnn[nH]2)cc1 [Irbesartan],–,–,PPB (fb) [2]: 0.9
CC(=O)OCC1=C(C(=O)O)N2C(=O)[C@@H](NC(=O)CSc3ccncc3)[C@H]2SC1 [Cephapirin],–,–,PPB (fb) [2]: 0.53
CN(CCOc1ccc(NS(C)(=O)=O)cc1)CCc1ccc(NS(C)(=O)=O)cc1 [Dofetilide],–,–,PPB (fb) [2]: 0.64
COC(=O)N[C@H](C(=O)N[C@@H](Cc1ccccc1)[C@@H](O)CN(Cc1ccc(-c2ccccn2)cc1)NC(=O)[C@@H](NC(=O)OC)C(C)(C)C)C(C)(C)C [Atazanavir],0.86,–,–
COc1cc2nc(N3CCN(C(=O)C4COc5ccccc5O4)CC3)nc(N)c2cc1OC (centres unmarked) [Doxazosin],–,–,PPB (fb) [2]: 0.97
CCC[C@H](N[C@@H](C)C(=O)N1[C@H](C(=O)O)C[C@@H]2CCCC[C@@H]21)C(=O)OCC [perindopril],–,0.6,–
CC(C)C[C@H]1C(=O)N2CCC[C@H]2[C@]2(O)O[C@](NC(=O)[C@@H]3C=C4c5cccc6[nH]c(Br)c(c56)C[C@H]4N(C)C3)(C(C)C)C(=O)N12 [bromocriptine],0.95,–,–
O=C(OC1Cc2c(O)cc(O)cc2OC1c1cc(O)c(O)c(O)c1)c1cc(O)c(O)c(O)c1 (centres unmarked) [Epigallocatechin gallate],–,0.91,–
C=C1CC[C@H](O)C/C1=C/C=C1\CCC[C@]2(C)[C@@H]([C@H](C)CCCC(C)(C)O)CC[C@@H]12 [calcifediol],0.8,–,–
CN1CCN(CCCN2c3ccccc3Sc3ccccc32)CC1 [perazine],–,0.95,–
CC(C(=O)NCCCN1CCCC1)c1ccc(OS(=O)(=O)C(F)(F)F)cc1 (centres unmarked) [JMC_05],–,0.62,–
COc1cc(C(=O)NS(=O)(=O)c2ccccc2C)ccc1Cc1cn(C)c2ccc(NC(=O)OC3CCCC3)cc12 [zafirlukast],–,–,PPB (fb) [2]: 0.99
NC(N)=Nc1nc(CSCCC(N)=NS(N)(=O)=O)cs1 [Famotidine],–,–,PPB (fb) [2]: 0.16
CNC1(c2ccccc2Cl)CCCCC1=O (centres unmarked) [Ketamine],–,–,PPB (fb) (plasma): 0.44

Molecule,PPB (fb) [1],PPB (fb) [3],also measured
CC1=C(CC(=O)O)c2cc(F)ccc2/C1=C\c1ccc([S+](C)[O-])cc1 (centres unmarked) [sulindac],–,0.93,–
Cc1cc2nc3c(=O)[nH]c(=O)nc-3n(C[C@H](O)[C@H](O)[C@H](O)CO)c2cc1C [riboflavin],–,0.6,–
CN(C/C=C/C#CC(C)(C)C)Cc1cccc2ccccc12 [terbinafine],–,0.99,–
CCCC(CC)C(CCC)C(=O)NC1C(=O)N2C1SC(C)(C)C2C(=O)O (centres unmarked) [penicillin4],–,0.93,–
NCC(CC(=O)O)c1ccc(Cl)cc1 (centres unmarked) [baclofen],0.3,–,–
CCN1CCN(c2cc3c(cc2F)c(=O)c(C(=O)O)cn3-c2ccc(OC)cc2)CC1 [5cb (p-OCH3__N-C2H5)],0.51,–,–
Rolitetracycline,–,–,PPB (fb) (plasma): 0.5
O=P(O)(O)OC(Cn1cncn1)(Cn1cncn1)c1ccc(F)cc1F [Fosfluconazole],0.96,–,–
COc1cc(OC)c(C(=O)CCCN2CCCC2)c(OC)c1 [Buflomedil],–,–,PPB (fb) [2]: 0.6
CNCCc1ccccn1 [betahistine],0.03,–,–
Cc1c(N(C)CS(=O)(=O)O)c(=O)n(-c2ccccc2)n1C [dipyrone],0.6,–,–
O=C1CN(/N=C/c2ccc([N+](=O)[O-])o2)C(=O)N1 [Nitrofurantoin],–,–,PPB (fb) [2]: 0.73
Nc1nc(/C(=N/O)C(=O)N[C@@H]2C(=O)N3C(C(=O)O)=C(/C=C4\CCN([C@@H]5CCNC5)C4=O)CS[C@H]23)ns1 [Ceftobiprole],–,–,PPB (fb) [2]: 0.38
O=c1n(CCCN2CCN(c3cccc(Cl)c3)CC2)nc2ccccn12 [trazodone],–,–,PPB (fb) [2]: 0.92
NNc1nncc2ccccc12 [Hydralazine],–,–,PPB (fb) [2]: 0.87
C[C@H]1O[C@H](O[C@H]2[C@H](O)[C@@H](O)[C@@H](O[C@H]3[C@H](O)[C@@H](O)C(O)O[C@@H]3CO)O[C@@H]2CO)[C@H](O)[C@@H](O)[C@@H]1N[C@H]1C=C(CO)[C@@H](O)[C@H](O)[C@H]1O (some centres unmarked) [acarbose],0.15,–,–
Cc1cn([C@H]2C[C@H](N=[N+]=[N-])[C@@H](CO)O2)c(=O)[nH]c1=O [Zidovudine],0.28,–,–
Cc1ccc(-c2ncc(Cl)cc2-c2ccc(S(C)(=O)=O)cc2)cn1 [Etoricoxib],–,–,PPB (fb) [2]: 0.92
CC(NC(C)(C)C)C(=O)c1cccc(Cl)c1 (centres unmarked) [bupropion],0.75,–,–
COc1ccnc(C[S+]([O-])c2nc3ccc(OC(F)F)cc3[nH]2)c1OC (centres unmarked) [Pantoprazole],–,–,PPB (fb) [2]: 0.98
COc1cc2c(cc1OC)CN(C(=O)[C@H](C)N[C@@H](CCc1ccccc1)C(=O)O)[C@H](C(=O)O)C2 [moexiprilat],–,0.5,–
Cc1onc(-c2ccccc2Cl)c1C(=O)N[C@@H]1C(=O)N2[C@@H]1SC(C)(C)[C@@H]2C(=O)O [cloxacillin],0.95,–,–
CC1(C)SC2C(NC(=O)C(N)c3cccc(O)c3)C(=O)N2C1C(=O)O (centres unmarked) [penicillin32],–,0.17,–
CC(=O)O[C@H]1C[C@@]2(C)[C@@H](C[C@@H](O)[C@H]3[C@@]4(C)CC[C@@H](O)[C@@H](C)[C@@H]4CC[C@@]32C)/C1=C(\CCC=C(C)C)C(=O)O [fusidic acid],–,0.95,–
NC(=O)c1cnccn1 [Pyrazinamide],–,0.1,–
CCC1(c2ccc(N)cc2)CCC(=O)NC1=O (centres unmarked) [aminoglutethimide],0.24,–,–
